Results on 6 substances are retold here after paper PMC4165445 (Biochemistry, 2014).

Where only a bound is given, the exact number is not on record here.

As a reminder, the Kd is a measure of binding affinity in units of concentration.

One experiment deals with JNK. Conditions: read-out: KD (μM) JNK; docking motif peptide binding to JNK; cited from earlier work.
A further experiment deals with p38. Conditions: read-out: KD (μM) p38; docking motif peptide binding to p38; cited from earlier work.
In the next experiment the target is ERK. To be noted: read-out: KD (μM) ERK; docking motif peptide binding to ERK; cited from earlier work.
The target in a further experiment is JNK1 (Homo sapiens, UniProt P45983). Kind of experiment: Recombinant kinase assay, kinetic parameters of sensor phosphorylation. The experiment is classed as biochemical.
The target of a further experiment is JNK2 (Homo sapiens, UniProt P45984). The experiment is described as above. The experiment is classed as biochemical.
The target in a further experiment is JNK3 (Homo sapiens, UniProt P53779). The experiment is described as above. The experiment is classed as biochemical.
The subject of a further experiment is off target kinases. Kind of experiment: Kinase panel selectivity screen, JNK sensor, off target kinases. In kind it is biochemical. Conditions: 15 nM kinase, sensor at 2 × KM (3 μM), other MAP and non-MAP kinases.
In experiment [1] the target is T1, p38α (Homo sapiens, UniProt Q16539). Kind of experiment: Recombinant kinase assay, kinetic parameters of sensor phosphorylation. The experiment is classed as biochemical.
For experiment [2], the target named is T2, p38β (Homo sapiens, UniProt Q15759). The experiment is described as above. The experiment is classed as biochemical.
A further experiment addresses ERK1 (Homo sapiens, UniProt P27361). The description is as above. The experiment is classed as biochemical.
For another experiment, the target named is ERK2 (Homo sapiens, UniProt P28482). The description is as above. The experiment is classed as biochemical.
Experiment [3] deals with T1, p38α. The experiment is described as follows: Kinase panel selectivity screen, ERK sensor crosstalk with p38α. In kind it is biochemical. To be noted: 15 nM kinase, sensor at 2 × KM (2.5 μM).
Experiment [4] deals with T2, p38β. The experiment is described as follows: Kinase panel selectivity screen, ERK sensor crosstalk with p38β. In kind it is biochemical. Conditions: 15 nM kinase, sensor at 2 × KM (2.5 μM).
Setting [5] is: recombinant JNK1, 1 mM ATP, pH 7.4, 30 °C, Sox fluorescence.
[6] abbreviates: recombinant JNK2, 1 mM ATP, pH 7.4, 30 °C, Sox fluorescence.
Where [7] appears, read: recombinant JNK3, 1 mM ATP, pH 7.4, 30 °C, Sox fluorescence.
Where [8] appears, read: 1 mM ATP, pH 7.4, 30 °C, Sox fluorescence.
The mark [9] stands for this setting: recombinant ERK1, 1 mM ATP, pH 7.4, 30 °C, Sox fluorescence.
Setting [10] is: recombinant ERK2, 1 mM ATP, pH 7.4, 30 °C, Sox fluorescence.

ERK2, sequence (P28482 whole entry): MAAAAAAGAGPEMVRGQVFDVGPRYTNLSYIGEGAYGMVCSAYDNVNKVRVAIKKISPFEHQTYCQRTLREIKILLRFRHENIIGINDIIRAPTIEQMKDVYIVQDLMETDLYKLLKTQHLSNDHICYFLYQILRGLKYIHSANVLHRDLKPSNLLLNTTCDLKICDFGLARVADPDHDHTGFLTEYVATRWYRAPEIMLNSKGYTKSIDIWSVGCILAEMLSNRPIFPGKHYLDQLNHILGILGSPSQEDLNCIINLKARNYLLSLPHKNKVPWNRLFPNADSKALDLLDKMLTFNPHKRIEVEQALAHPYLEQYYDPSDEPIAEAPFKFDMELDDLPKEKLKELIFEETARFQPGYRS
JNK3, sequence (P53779 whole entry): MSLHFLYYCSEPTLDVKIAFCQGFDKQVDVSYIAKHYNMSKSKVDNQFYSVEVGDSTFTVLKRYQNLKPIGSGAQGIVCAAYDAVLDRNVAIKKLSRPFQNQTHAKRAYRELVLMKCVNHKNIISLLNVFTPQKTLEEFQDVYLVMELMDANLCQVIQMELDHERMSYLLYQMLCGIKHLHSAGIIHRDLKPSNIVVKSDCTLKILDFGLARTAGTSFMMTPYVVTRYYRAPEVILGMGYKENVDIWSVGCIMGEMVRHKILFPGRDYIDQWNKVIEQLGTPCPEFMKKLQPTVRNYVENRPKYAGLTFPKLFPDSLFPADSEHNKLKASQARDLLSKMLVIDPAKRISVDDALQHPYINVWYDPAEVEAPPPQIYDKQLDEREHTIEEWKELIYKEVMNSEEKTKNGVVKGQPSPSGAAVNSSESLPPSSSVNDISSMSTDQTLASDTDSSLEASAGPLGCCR
T2 sequence (Q15759 whole entry): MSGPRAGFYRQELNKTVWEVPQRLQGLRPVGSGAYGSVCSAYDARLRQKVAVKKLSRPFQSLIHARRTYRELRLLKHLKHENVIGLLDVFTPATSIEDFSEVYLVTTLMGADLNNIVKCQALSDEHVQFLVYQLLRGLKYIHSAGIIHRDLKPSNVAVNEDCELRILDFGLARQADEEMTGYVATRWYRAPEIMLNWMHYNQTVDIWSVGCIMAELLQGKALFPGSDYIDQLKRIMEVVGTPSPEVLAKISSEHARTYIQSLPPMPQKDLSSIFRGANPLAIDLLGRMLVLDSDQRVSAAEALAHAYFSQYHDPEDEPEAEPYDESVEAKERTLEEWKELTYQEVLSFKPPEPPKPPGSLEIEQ
JNK1, sequence (P45983 whole entry): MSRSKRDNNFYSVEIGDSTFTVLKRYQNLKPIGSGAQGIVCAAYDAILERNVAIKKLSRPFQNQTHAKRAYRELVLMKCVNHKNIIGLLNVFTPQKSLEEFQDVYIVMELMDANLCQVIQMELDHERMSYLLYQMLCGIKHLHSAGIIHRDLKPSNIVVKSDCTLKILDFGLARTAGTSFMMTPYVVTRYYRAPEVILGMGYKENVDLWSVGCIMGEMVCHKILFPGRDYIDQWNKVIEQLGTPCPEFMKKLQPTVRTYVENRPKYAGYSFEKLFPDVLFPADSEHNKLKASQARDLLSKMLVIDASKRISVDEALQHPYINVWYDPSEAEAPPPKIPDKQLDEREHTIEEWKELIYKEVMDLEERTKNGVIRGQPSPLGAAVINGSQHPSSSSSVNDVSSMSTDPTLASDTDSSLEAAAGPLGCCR
ERK1, sequence (P27361 whole entry): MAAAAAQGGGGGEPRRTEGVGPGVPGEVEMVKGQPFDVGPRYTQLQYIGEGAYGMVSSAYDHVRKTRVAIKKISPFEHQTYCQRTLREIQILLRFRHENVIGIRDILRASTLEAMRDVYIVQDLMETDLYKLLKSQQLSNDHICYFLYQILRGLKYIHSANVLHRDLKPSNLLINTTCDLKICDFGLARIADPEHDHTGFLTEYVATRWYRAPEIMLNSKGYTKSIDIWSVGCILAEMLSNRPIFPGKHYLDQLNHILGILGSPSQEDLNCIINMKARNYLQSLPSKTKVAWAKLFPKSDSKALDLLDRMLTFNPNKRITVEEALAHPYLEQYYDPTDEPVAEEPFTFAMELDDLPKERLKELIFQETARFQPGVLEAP
T1 sequence (Q16539 whole entry): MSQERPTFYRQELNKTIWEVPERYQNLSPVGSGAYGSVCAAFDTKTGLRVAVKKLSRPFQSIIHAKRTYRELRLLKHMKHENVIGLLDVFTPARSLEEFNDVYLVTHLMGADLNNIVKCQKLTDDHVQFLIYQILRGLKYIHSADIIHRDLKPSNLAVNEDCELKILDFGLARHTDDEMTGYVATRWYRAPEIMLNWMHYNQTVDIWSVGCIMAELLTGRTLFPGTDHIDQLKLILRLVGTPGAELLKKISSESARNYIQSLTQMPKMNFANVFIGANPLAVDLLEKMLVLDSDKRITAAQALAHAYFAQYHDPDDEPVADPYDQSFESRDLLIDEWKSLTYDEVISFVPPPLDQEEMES

For ERPSRDHLYLPLEP [NFAT4], the Kd is 7.1 µM at JNK, above 100 µM on p38 and above 100 µM on ERK.

As to “ERPSRDHLYLPLEP-PEG2-SANLLSP-Csox-PA [JNK1/2/3]”, the “catalytic efficiency (min^–1 μM^–1)” value came out at 5.4 min^–1 μM^–1 at JNK1 (recombinant JNK1), 19.2 min^–1 μM^–1 on JNK2 (recombinant JNK2) and 9.4 min^–1 μM^–1 at JNK3 (recombinant JNK3). Further, the entries for the “Vmax (μmol min^–1 mg^–1)” value on JNK1 (setting [5]), on JNK2 (setting [6]) and at JNK3 (setting [7]) were 0.38 ± 0.05 μmol min^–1 mg^–1, 0.37 ± 0.02 μmol min^–1 mg^–1 and 0.35 ± 0.07 μmol min^–1 mg^–1, respectively. The “kcat (min^–1)” value at JNK1 (setting [5]) was found to be 17.9 ± 2.2 min^–1; on JNK2 (setting [6]) it was 18.2 ± 1.3 min^–1; on JNK3 (setting [7]), 26.6 ± 5.6 min^–1. Besides, the “activity observed for any of the off target kinases (percentage of the target kinase)” value in the experiment on off target kinases is listed as at most 12.5%.

Regarding “GKKRRKLLLPNSADEIKKIKI-PEG2-Triazole-PEG2-QP-Csox-ASPVV [p38α/β]”, the “catalytic efficiency (min^–1 μM^–1)” value turned out to be 298.7 min^–1 μM^–1 on p38α [1] and 282.9 min^–1 μM^–1 at p38β [2]. Besides, the “Vmax (μmol min^–1 mg^–1)” value came out at 1.37 ± 0.08 μmol min^–1 mg^–1 on p38α [1] (setting [8]) and 0.84 ± 0.13 μmol min^–1 mg^–1 on p38β [2] (setting [8]). The “kcat (min^–1)” value at p38α [1] (setting [8]) was determined as 92.6 ± 5.4 min^–1; at p38β [2] (setting [8]) it was 39.6 ± 6.3 min^–1.

“GLKRVRRQALISSEIPKLQP-PEG2-Triazole-PEG2-VP-Csox-LTPGGRR [ERK1/2]”: the figures for the “catalytic efficiency (min^–1 μM^–1)” value at ERK1 (recombinant ERK1) and on ERK2 (recombinant ERK2) were 26.2 min^–1 μM^–1 and 54.6 min^–1 μM^–1, respectively. Also, the entries for the “Vmax (μmol min^–1 mg^–1)” value at ERK1 (setting [9]) and at ERK2 (setting [10]) were 0.42 ± 0.03 μmol min^–1 mg^–1 and 0.90 ± 0.01 μmol min^–1 mg^–1, respectively. For the same substance, the “kcat (min^–1)” value on ERK1 (setting [9]) is 29.9 ± 2.0 min^–1; on ERK2 (setting [10]), 62.8 ± 0.7 min^–1. In addition, the “crosstalk with p38α (percentage of the target kinase)” value at p38α [3] is listed as 10%. The “crosstalk with p38β (percentage of the target kinase)” value on p38β [4] is 17%.

In the case of IKIKKIEDASNPLLLKRRKK [MK2], the Kd was above 100 µM at JNK, 0.05 µM at p38 and 19.5 µM on ERK.

Turning to PQLKPIESSILAQRRVRKL [RSK1], the Kd on JNK was above 100 µM.
